For test [1], the system named is HCT116. The test is described as follows: efficacy (maximum % inhibition of viability vs DMSO); higher = more cytotoxic. The note with it: 72 h. The gist of the method: (§1)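 IC50 and maximal efficacy were derived from four-parameter Hill curve fits. The underlying CellTiter-Glo luminescence was scaled so that vehicle equals 0% and positive control equals -100%, and was then pattern-corrected. HCT116 cells had been seeded in 1536-well plates at 250 per well.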

The test system of test [2] is HCT116. The note with it: 72 h. A digest of the protocol:
as §1

The values below come from the supplement of paper PMC12137928.

Each structure is given as a SMILES string. Structures can show the parent of a compound that is named as a salt.

For the compound `CC(C)COc1ccc(CNC(=O)N(Cc2ccc(F)cc2)C2CCN(C)CC2)cc1` [Pimavanserin], the efficacy came out at 96.9% in the test with HCT116 [1] (ICRF193 0 nM) and 97.4% with HCT116 [1] (ICRF193 200 nM). Further, the IC50 cell viability in the test with HCT116 [2] (ICRF193 0 nM) and in the test with HCT116 [2] (ICRF193 200 nM) was 18.3 µM each time.
With `CN(C)CCC=C1c2ccccc2C=Cc2ccccc21` [Cyclobenzaprine hydrochloride], the efficacy in the test on HCT116 [1] (ICRF193 200 nM) worked out at 52.3%. The IC50 cell viability was over 45.8 µM in the test with HCT116 [2] (ICRF193 0 nM) and 20.6 µM in the test with HCT116 [2] (ICRF193 200 nM).
As for `C=C(C)[C@H]1Cc2c(ccc3c2O[C@@H]2COc4cc(OC)c(OC)cc4[C@@H]2C3=O)O1` [Rotenone], the efficacy in the test with HCT116 [1] (ICRF193 0 nM) was 69.7%; in the test with HCT116 [1] (ICRF193 200 nM), 89.1%. Moreover, the IC50 cell viability came to 0.326 µM in the test on HCT116 [2] (ICRF193 0 nM) and 0.517 µM in the test on HCT116 [2] (ICRF193 200 nM).
In the same order, the values of `COc1cc([C@@H]2c3cc4c(cc3[C@@H](O[C@@H]3O[C@@H]5CO[C@@H](C)O[C@H]5[C@H](O)[C@H]3O)[C@H]3COC(=O)[C@H]23)OCO4)cc(OC)c1O` [Etoposide] are 66.7%, 99.1%, 29.1 µM and 2.91 µM.
`CCc1c2c(nc3ccc(OC(=O)N4CCC(N5CCCCC5)CC4)cc13)-c1cc3c(c(=O)n1C2)COC(=O)[C@]3(O)CC` [Irinotecan]: the values for the efficacy with HCT116 [1] (ICRF193 0 nM) and with HCT116 [1] (ICRF193 200 nM) were 79.8% and 102%, respectively. For the same compound, the figures for the IC50 cell viability with HCT116 [2] (ICRF193 0 nM) and in the test with HCT116 [2] (ICRF193 200 nM) were 13 µM and 23.1 µM, respectively.
The corresponding values for `CC(=O)[O][Hg][c]1ccccc1` [Phenylmercuric acetate] are 106%, 97.9%, 4.61 µM and 5.17 µM.
In the same order, the values of `COc1cccc2c1C(=O)c1c(O)c3c(c(O)c1C2=O)C[C@@](O)(C(=O)CO)C[C@@H]3O[C@H]1C[C@H](N)[C@H](O[C@@H]2CCCCO2)[C@H](C)O1` [Pirarubicin] are 127%, 104%, 5.17 µM and 6.51 µM.
In the same order, the values of `CC[C@@H](C(=O)O)[C@@H]1O[C@@H]([C@@H](C)[C@H](O)[C@H](C)C(=O)[C@H](CC)[C@H]2O[C@]3(C=C[C@@H](O)[C@]4(CC[C@@](C)([C@H]5CC[C@](O)(CC)[C@H](C)O5)O4)O3)[C@H](C)C[C@@H]2C)[C@@H](C)C[C@@H]1C` [Narasin] are 80.5%, 94.5%, 3.66 µM and 2.91 µM.
With `OC[C@H]1O[C@H](O[C@]2(CCl)O[C@H](CCl)[C@@H](O)[C@@H]2O)[C@H](O)[C@@H](O)[C@H]1Cl` [Sucralose], the efficacy with HCT116 [1] (ICRF193 200 nM) is 44.6%. Besides, the IC50 cell viability is over 45.8 µM in the test on HCT116 [2] (ICRF193 0 nM) and 6.51 µM in the test with HCT116 [2] (ICRF193 200 nM).
For `CCC[C@H](NC(=O)[C@@H]1[C@H]2CCC[C@H]2CN1C(=O)[C@@H](NC(=O)[C@@H](NC(=O)c1cnccn1)C1CCCCC1)C(C)(C)C)C(=O)C(=O)NC1CC1` [Telaprevir (VX-950)], the efficacy in the test with HCT116 [1] (ICRF193 0 nM) was determined as 80.7%; in the test on HCT116 [1] (ICRF193 200 nM), 74.5%. Moreover, the values for the IC50 cell viability in the test on HCT116 [2] (ICRF193 0 nM) and with HCT116 [2] (ICRF193 200 nM) were 20.6 µM and 29.1 µM, respectively.
`COc1cc(NC(C)CCCN)c2ncccc2c1` (stereo not given) [Primaquine diphosphate] came in with an efficacy with HCT116 [1] (ICRF193 0 nM) of 87.5%. For the same compound, the IC50 cell viability is 5.8 µM in the test with HCT116 [2] (ICRF193 0 nM) and over 45.8 µM in the test on HCT116 [2] (ICRF193 200 nM).
`O=S(=O)(O)c1ccc2c(/N=N/c3ccc(S(=O)(=O)O)c4ccccc34)c(O)c(S(=O)(=O)O)cc2c1` [Amaranth]: the efficacy in the test on HCT116 [1] (ICRF193 0 nM) came to 49%; with HCT116 [1] (ICRF193 200 nM), 47.6%. Besides, the IC50 cell viability in the test with HCT116 [2] (ICRF193 0 nM) turned out to be 16.4 µM; in the test with HCT116 [2] (ICRF193 200 nM) it was 13 µM.
With `CCOC(=O)C1=C(COCCN)NC(C)=C(C(=O)OC)C1c1ccccc1Cl` (stereo not given) [Amlodipine], the efficacy in the test with HCT116 [1] (ICRF193 200 nM) worked out at 88.3%. Besides, the IC50 cell viability in the test on HCT116 [2] (ICRF193 0 nM) is over 45.8 µM; in the test on HCT116 [2] (ICRF193 200 nM) it was 16.4 µM.
Consider `Clc1ccc(CSC(Cn2ccnc2)c2ccc(Cl)cc2Cl)cc1` (stereo not given) [Sulconazole nitrate], for which the efficacy in the test with HCT116 [1] (ICRF193 0 nM) worked out at 89.6%; with HCT116 [1] (ICRF193 200 nM), 76.4%. Also, the IC50 cell viability in the test on HCT116 [2] (ICRF193 0 nM) is 29.1 µM; in the test with HCT116 [2] (ICRF193 200 nM), 18.3 µM.
In the same order, the values of `COc1ccccc1OCCNCC(O)COc1cccc2[nH]c3ccccc3c12` (stereo not given) [Carvedilol tartrate] are 96.8%, 102%, 20.6 µM and 29.1 µM.
The corresponding values for `O=[N+]([O-])c1ccc(Oc2ccc(N=C=S)cc2)cc1` [Nitroscanate] are 82.7%, 85.5%, 29.1 µM and 29.1 µM.
Turning to `COC(=O)[C@H]1[C@H]2C[C@@H]3c4[nH]c5cc(OC)ccc5c4CCN3C[C@H]2C[C@@H](OC(=O)/C=C/c2ccc(O)c(OC)c2)[C@@H]1OC` [Rescimetol], the efficacy in the test on HCT116 [1] (ICRF193 0 nM) is 101%; with HCT116 [1] (ICRF193 200 nM), 106%. Also, the figures for the IC50 cell viability in the test with HCT116 [2] (ICRF193 0 nM) and in the test on HCT116 [2] (ICRF193 200 nM) were 20.6 µM and 29.1 µM, respectively.
The corresponding values for `COC(=O)C1=C(C)NC(C)=C(C(=O)OCCN(C)Cc2ccccc2)C1c1cccc([N+](=O)[O-])c1` (stereo not given) [Nicardipine] are 61.1%, 69.1%, 23.1 µM and 20.6 µM.
The corresponding values for `CNCC[C@H](Oc1cccc2ccccc12)c1cccs1` [Duloxetine hydrochloride] are 93%, 105%, 18.3 µM and 20.6 µM.
For the compound `CC[C@H]1CN2CCc3cc(OC)c(OC)cc3[C@@H]2C[C@@H]1C[C@H]1NCCc2cc(OC)c(OC)cc21` [EMETINE DIHYDROCHLORIDE], the results for the efficacy in the test on HCT116 [1] (ICRF193 0 nM) and in the test on HCT116 [1] (ICRF193 200 nM) were 70.8% and 76.6%, respectively. For the same compound, the figures for the IC50 cell viability in the test on HCT116 [2] (ICRF193 0 nM) and with HCT116 [2] (ICRF193 200 nM) were 0.146 µM and 0.13 µM, respectively.
The corresponding values for `Clc1ccc(C(Cn2ccnc2)OCc2ccsc2Cl)c(Cl)c1` (stereo not given) [Tioconazole] are 102%, 91.7%, 20.6 µM and 18.3 µM.
